Data set [1] is described as follows: Postemergence herbicidal activity (% control) against monocot weeds. The data set is classed as in vivo. The following applies: post-emergence, 336 h, average, read-out: Herbicidal activity (% control), postemergence, monocots. The source says:
(§1) barnyardgrass (Echinochloa crusgalli) crabgrass (Digitaria spp.) nutsedge (Cyperus esculentus)
(§2) At 2 and 4 pounds per acre:
(§3) **Bermudagrass (Cynodon dactylon)
(§4) *downy brome (Bromus tectorum) foxtail (Setaria faberii)
(§5) Johnsongrass (Sorghum halepense) […]
(§6) quackgrass (Agropyron repens)
(§7) *ryegrass (Lolium perenne)
(§8) *wild oats (Avena factua)
(§9) *yellow millet (Panicum miliaceum)
(§10) The following test procedure is employed.

Data set [2] is described as follows: Postemergence herbicidal activity (% control) against dicot weeds. The following applies: post-emergence, 336 h.
Data set [3] in a line: Preemergence herbicidal activity (% control) against monocot weeds. The data set is classed as in vivo. The following applies: pre-emergence, 336 h, average, read-out: Herbicidal activity (% control), preemergence, monocots.
Text: as §1, §2, §3, §4, §5, §6, §7, §8, §9, §10

In a further data set the test system is rice. The experiment in a line: Crop tolerance (selective herbicidal activity), rice. The data set is classed as in vivo. The following applies: postemergence applications or applications on transplanted rice.
A further data set concerns safflower. The experiment in a line: Crop tolerance (selective herbicidal activity), safflower. The following applies: preemergence applications. The data set is classed as in vivo. As for the experimental part: as §10
(§11) Following the general test procedure of Example 37, diphenyl ethers are evaluated for significant tolerance (as shown by 50% or less kill of the test crop at levels of application which give more than 50% kill of many or all of the weeds of Example 73) towards some or all of the following common agronomic crops (not all compounds tested against all crops): alfalfa, snapbeans, corn, cotton, cucumbers, peanuts, rape, rice, safflower, soybeans, tomatoes, and wheat.

For another data set, the system named is soybeans. The experiment in a line: Crop tolerance (selective herbicidal activity), soybeans. The data set is classed as in vivo.
The nature of data set [4]: Preemergence herbicidal activity (% control) against dicot weeds. The following applies: pre-emergence, 336 h.
Another data set relates to peanuts. The experiment in a line: Crop tolerance (selective herbicidal activity), peanuts. The data set is classed as in vivo. The following applies: preemergence applications.
Another data set deals with cotton. The experiment in a line: Crop tolerance (selective herbicidal activity), cotton. The data set is classed as in vivo. As for the experimental part: as §10, §11
Setting [5] is: 4 lb./A., about two weeks after application.
Where [6] appears, read: 10 lb./A., about two weeks after application.
Where [7] appears, read: postemergence or layby applications.

Turning to `CCOc1cc(Oc2ccc(C(F)(F)F)cc2Cl)ccc1[N+](=O)[O-]` [Example 3, 2-Chloro-α,α,α-trifluoro-p-tolyl-3-ethoxy-4-nitrophenyl ether], the pest or weed control at 560.425 g/ha turned out to be 96% in data set [1] (1/2 lb./A. (footnote +)) and 97% in [2] (read-out: Herbicidal activity (% control), postemergence, dicots). The activity at 4483.4 g/ha is 99% in data set [1] (setting [5]); 100% in data set [2] (read-out: Herbicidal activity (% control), postemergence, dicots, 4 lb./A., average, about two weeks after application); 89% in [3] (setting [5]); 99% in [4] (read-out: Herbicidal activity (% control), preemergence, dicots, 4 lb./A., average, about two weeks after application). Moreover, the activity at 11208.5 g/ha was determined as 100% in data set [1] (setting [6]); 100% in [2] (read-out: Herbicidal activity (% control), postemergence, dicots, 10 lb./A., average, about two weeks after application); 99% in [3] (setting [6]); 100% in data set [4] (read-out: Herbicidal activity (% control), preemergence, dicots, 10 lb./A., average, about two weeks after application). Besides, the pest or weed control at 280.212 g/ha in data set [3] (1/4 lb./A.) stood at 84%; in [4] (read-out: Herbicidal activity (% control), preemergence, dicots) it was 66%. Further, the Tolerance to rice result with rice was “Tolerance (significant tolerance (as shown by 50% or less kill of the test crop at levels of application which give more than 50% kill of many or all of the weeds of Example 73))”. Moreover, the Tolerance to safflower entry in the data set with safflower is reported as “Tolerance (significant tolerance (as shown by 50% or less kill of the test crop at levels of application which give more than 50% kill of many or all of the weeds of Example 73))”. The Tolerance to soybeans entry in the data set on soybeans (setting [7]) and with soybeans (preemergence applications) was “Tolerance (significant tolerance (as shown by 50% or less kill of the test crop at levels of application which give more than 50% kill of many or all of the weeds of Example 73))” each time. For the same compound, the Tolerance to peanuts entry with peanuts is on record as “Tolerance (significant tolerance (as shown by 50% or less kill of the test crop at levels of application which give more than 50% kill of many or all of the weeds of Example 73))”. Besides, the Tolerance to cotton result in the data set on cotton (setting [7]) and in the data set on cotton (preemergence applications) was “Tolerance (significant tolerance (as shown by 50% or less kill of the test crop at levels of application which give more than 50% kill of many or all of the weeds of Example 73))” each time.

Values taken from patent publication US4419123A, “Herbicidal 4-trifluoromethyl-3'-carbon-substituted-4'-substituted diphenyl ethers” (Rohm and Haas Company, priority 1981, dated 1983).
